Read-outs that look alike come from different tables or passages of the source.
Key:
Nerve injured rats = experiment: Mechanical allodynia (Electronic Von Frey) in chronic constriction injury model of neuropathic pain; assay type: in vivo, rat; conditions: MPE ± s.e.m.; 60 minutes after administration; CHF3381 30 mg/kg p.o., morphine 0.1 mg/kg s.c., alone or combined; vehicle 0.15±0.06
From the text: The animal model of chronic pain was a slight modification of the chronic constriction injury model of neuropathic pain originally described by Bennett G J et al in Pain 1988, 33, 87-107.
Nerve injured rats were placed on an elevated screen in a clear testing chamber and allowed to acclimate to the testing environment before any measurements were taken. The mechanical stimulus was delivered underneath to the plantar surface of the left hind paw of the rat by using the automated testing device Electronic Von Frey.
A steel rod was pushed against the hind paw with ascending force. The ramping of the force went from 0 to 50 g over a 20 s period. When the animal withdrew its hind paw, the mechanical stimulus was automatically withdrawn and the force at which the animal withdrew its paw was recorded. To quantify the mechanical sensitivity of the hind paws, withdrawal thresholds were taken from five consecutive trials with at least 10 s between each trial. The withdrawal threshold was taken to be the mean of the five trials (baseline value). […]
The values are expressed as Maximum Possible Effect (MPE)±s.e.m
The MPE value was calculated as follow: MPE=(PDR−IBR)/(CBR−IBR), where PDR is the post drug response of the ipsilateral paw, IBR is the ipsilateral paw baseline response and CBR is the contralateral paw baseline response. […]

Neuropathic rats [1] = experiment: Cold allodynia (chilled metal floor) in chronic constriction injury model of neuropathic pain; assay type: in vivo, rat; conditions: mean ± s.e.m.; 60 minutes after treatment; 5±1° C. floor; CHF3381 30 mg/kg p.o., morphine 0.1 mg/kg s.c., alone or combined; vehicle 2.90±0.41 s
Experimental: (§1) The animal model of chronic pain was the same of Example 1.
Neuropathic rats were placed upon a metal floor chilled by an underlying water bath (5±1° C.) for a maximum of 20 s. The animals responded to the contact with the cold surface by lifting the paw on the ligated side off the floor. […] For each set of experiments, animals were pre-screened twice with 20 min interval between tests, in order to select animals displaying clear signs of allodynia, i.e. animals with a paw withdrawal latency on the ligated side of <10 s in both trials. […] The latency to paw withdrawal was then determined at 60 minutes after the administration of vehicle, CHF3381 (30 mg/kg p.o.) alone, morphine (0.1 mg/kg s.c.) alone or their combination.

Neuropathic rats [2] = experiment: Mechanical hyperalgesia (analgesymeter, Randall method) in chronic constriction injury model of neuropathic pain; assay type: in vivo, rat; conditions: mean ± s.e.m.; CHF3381 30 mg/kg p.o., morphine 0.1 mg/kg s.c., alone or combined; cut-off 500 g; vehicle 105.7±8.2 g
Experimental: as §1
Nerve injured rats developed mechanical hyperalgesia […]. Indeed, in these animals the mean paw threshold was decreased to about 110 g on the ligated side compared to the contralateral side (about 350 g; P<0.01).
Mechanical hyperalgesia was assessed in neuropathic rats by using an analgesymeter according to the method reported in Randall L O et al (Arch Int Pharmacodyn Ther 1957, 111, 409-419). Mechanical nociceptive thresholds were evaluated by measuring paw withdrawal thresholds to an increasing pressure stimulus applied to the distal portion of the plantar surface of the hind paw. The site of the stimulation was on area of the hind paw between the pads at the base of the third and forth digit. A cut-off was set at 500 g to prevent any tissue damage and the endpoint was taken as a complete paw withdrawal.

mice = conditions: mean ± s.e.m.
Experimental: The animal model of inflammatory was a slight modification of the mouse paw formalin test originally described by Wheeler-Aceto H et al in Psychopharmacology 104, 35-44 (1991). Before formalin injection, mice were placed individually into clear plastic cylinders. After adaptation to the cage, 20 μl of 1% formalin was injected into the plantar surface of the left hind paw. Morphine was administered 30 min before formalin injection.
Mice, divided randomly into eight groups (13-16 animals/group), received treatment once daily for 4 days as follows: groups g1 and g2 received saline, 10 ml/kg i.p.; groups g3 and g4 received morphine 50 mg/kg i.p.; group g5 received morphine 50 mg/kg and CHF3381 30 mg/kg i.p.; group g6 received morphine 50 mg/kg and CHF3381 60 mg/kg i.p. On day 5, the mice received saline (g1 and g3), or morphine 6 mg/kg, i.p. (g2, g4, g5 and g6).
The amount of time, in seconds, the animals spent licking and flinching the injected paw from 10 to 40 min after formalin injection, was used as measurement of pain intensity.
The level of significance was set at P<0.05.

CN1CC[C@]23c4c5ccc(O)c4O[C@H]2[C@@H](O)C=C[C@H]3[C@H]1C5 [morphine]
Maximum Possible Effect (MPE) on paw withdrawal threshold to mechanical stimulation (Nerve injured rats): 0.21±0.07 | mean paw withdrawal latency (cold allodynia) (Neuropathic rats [1]): 5.17 ± 0.86 s | Paw withdrawal threshold (mechanical hyperalgesia) (Neuropathic rats [2]): 105.8 ± 6.0 g | mean licking time, 10 to 40 min after formalin injection (mice; g2: saline i.p. days 1-4, morphine 6 mg/kg i.p. day 5, saline control g1 119.9±17.0): 65.9 ± 18.3 s | mean licking time, 10 to 40 min after formalin injection (mice; g3: morphine 50 mg/kg i.p. days 1-4, saline i.p. day 5): 143.9 ± 19.2 s | licking time, 10 to 40 min after formalin injection (mice; g4: morphine 50 mg/kg i.p. days 1-4, morphine 6 mg/kg i.p. day 5): 112.1 ± 13.4 s

Reference: patent US20080287480A1, “Therapeutic Combination Comprising a Nmda Receptors Blocker and a Narcotic Analgesic Substance” (Chiesi Farmaceutici S.p.A., priority 2005, published 2008)
